Laboratory results as given in patent US20240109937A1, “BINDING PEPTIDES AND USES THEREOF” (The Johns Hopkins University, priority 2021, published 2024).

Tests used:
Type in all cases: cell-based, mouse
HL-1 cells [1] = experiment: Intracellular Ca2+ (Fluo4 FF fluorescence) in HL-1 cells; conditions: Calcimycin 1 μM in HBS KV medium
Experimental: Calcium (Ca^2+) Overload Protocol: Rapid and sustained intracellular Ca^2+ overload was obtained by adding the Ca^2+-ionophore, calcimycin (1 μM), to HL-1 cells incubated for 10 min in HBS KV medium (1.26 mM CaCl2, 0.81 mM MgSO4, 0.44 mM KH2PO4, 142 mM KCl, 0.27 mM K2HPO4, 5.55 mM D-glucose, 1 mM Na3VO4, 20 mM Hepes pH 7.4). To monitor intracellular Ca^2+ variations, HL-1 cells were loaded with 5 μM Fluo-4 FF AM (Molecular Probes) in HBS Na (Sigma) for 30 min before the media was replaced with HBS KV.

HL-1 cells [2] = experiment: Mitochondrial membrane potential (JC-1) assay in HL-1 cells; conditions: Calcimycin 1 μM in HBS KV medium
Experimental: Calcium (Ca^2+) Overload Protocol: Rapid and sustained intracellular Ca^2+ overload was obtained by adding the Ca^2+-ionophore, calcimycin (1 μM), to HL-1 cells incubated for 10 min in HBS KV medium (1.26 mM CaCl2, 0.81 mM MgSO4, 0.44 mM KH2PO4, 142 mM KCl, 0.27 mM K2HPO4, 5.55 mM D-glucose, 1 mM Na3VO4, 20 mM Hepes pH 7.4). To monitor intracellular Ca^2+ variations, HL-1 cells were loaded with 5 μM Fluo-4 FF AM (Molecular Probes) in HBS Na (Sigma) for 30 min before the media was replaced with HBS KV. […] Mitochondrial Membrane Potential (MMP) Assay: MMP was determined using the potentiometric probe, JC-1. JC-1 (Molecular Probes) is a cationic carbocyanine dye that selectively accumulates in polarized mitochondria, where it forms red fluorescent aggregates (excitation 485/emission 590 nm). Upon mitochondrial depolarization, JC-1 is released into the cytosol, whereas a monomer emits green fluorescence (excitation 485 nm/emission 520 nm). Therefore, MMP variations were monitored as the ratio of fluorescent emissions at 590/520 nm using a fluorimeter plate reader (Fluoroskan Ascent Labsystem). HL-1 cells were incubated with JC-1 (1.5 μM) for 30 min at 37° C. in HBS Na before treatment protocols.

HL-1 cells [3] = experiment: Cell viability assay (LDH release) in HL-1 cells under Ca2+ overload; conditions: Calcimycin 1 μM in HBS KV medium, dose-dependent response
Experimental: Calcium (Ca^2+) Overload Protocol: Rapid and sustained intracellular Ca^2+ overload was obtained by adding the Ca^2+-ionophore, calcimycin (1 μM), to HL-1 cells incubated for 10 min in HBS KV medium (1.26 mM CaCl2, 0.81 mM MgSO4, 0.44 mM KH2PO4, 142 mM KCl, 0.27 mM K2HPO4, 5.55 mM D-glucose, 1 mM Na3VO4, 20 mM Hepes pH 7.4). To monitor intracellular Ca^2+ variations, HL-1 cells were loaded with 5 μM Fluo-4 FF AM (Molecular Probes) in HBS Na (Sigma) for 30 min before the media was replaced with HBS KV. […] Cell Viability Assay: HL-1 plasma membrane integrity was assessed by measuring lactate dehydrogenase (LDH) release in the culture supernatant. An enzymatic assay evaluated LDH activity. Samples of the cell-free culture supernatant were collected at indicated times in Figures/Figure Legends, while cells were lysed in 1% (w/v) Triton X-100 at the end of each experiment to estimate the remaining cellular content of LDH. The LDH activity at each time point was expressed as a percentage of total LDH activity.

CCCC[C@@H](C=O)NC(=O)[C@H](CC(C)C)NC(=O)OCc1ccccc1 [calpeptin]
kinetics of cytosolic Ca2+ accumulation (HL-1 cells [1]): neither of them had an impact
Ca2+ overload-induced decrease in mitochondrial membrane potential (MMP) (HL-1 cells [2]): significantly attenuated
reduction in cell death (LDH release) (HL-1 cells [3]): ~40%
